Results published in patent publication US20020165148A1, “Analogues and derivatives of gastrin releasing peptide (GRP)” (priority 2000, published 2002).

Experiments:
diabetic rats = experiment: injection of GRP into diabetic rats, clearance of blood glucose; type: in vivo
pancreatic islet cells = pancreatic islet cells in vitro; cited from earlier work
DPP IV = target: T1, DPP IV (Rattus norvegicus, UniProt P14740); experiment: inactivation by DPP IV cleavage / half-life in plasma; type: in vitro ADME
T1 construct: cleavage by the enzyme DPP IV in plasma; from tissue; host or cells: plasma
T1 sequence (P14740 37-767 limits assumed): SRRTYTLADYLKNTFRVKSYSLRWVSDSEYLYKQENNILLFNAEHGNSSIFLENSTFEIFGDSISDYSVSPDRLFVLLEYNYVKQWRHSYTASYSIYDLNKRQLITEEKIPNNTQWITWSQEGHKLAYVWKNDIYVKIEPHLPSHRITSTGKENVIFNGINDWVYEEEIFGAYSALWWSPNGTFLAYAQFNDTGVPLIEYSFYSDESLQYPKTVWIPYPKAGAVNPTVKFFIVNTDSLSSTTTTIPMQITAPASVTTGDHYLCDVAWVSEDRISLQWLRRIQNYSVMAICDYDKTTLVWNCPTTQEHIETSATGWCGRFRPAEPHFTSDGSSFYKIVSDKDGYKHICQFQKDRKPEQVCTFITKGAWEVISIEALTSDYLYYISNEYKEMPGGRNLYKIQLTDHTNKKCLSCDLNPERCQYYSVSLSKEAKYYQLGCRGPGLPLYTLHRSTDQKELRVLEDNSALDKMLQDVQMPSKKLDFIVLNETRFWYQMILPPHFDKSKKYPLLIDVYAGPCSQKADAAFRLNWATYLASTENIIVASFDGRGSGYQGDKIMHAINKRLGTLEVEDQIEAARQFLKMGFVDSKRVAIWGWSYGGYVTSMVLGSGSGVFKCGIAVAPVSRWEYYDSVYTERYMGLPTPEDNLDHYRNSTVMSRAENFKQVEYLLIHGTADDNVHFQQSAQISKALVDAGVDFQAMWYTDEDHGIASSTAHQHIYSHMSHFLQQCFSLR

Question: What does the source list for `CSCC[C@H](NC(=O)[C@H](CC(C)C)NC(=O)[C@H](Cc1c[nH]cn1)NC(=O)CNC(=O)[C@@H](NC(=O)[C@H](C)NC(=O)[C@H](Cc1c[nH]c2ccccc12)NC(=O)[C@H](Cc1c[nH]cn1)NC(=O)[C@H](CC(N)=O)NC(=O)CNC(=O)[C@H](CCCNC(=N)N)NC(=O)[C@@H]1CCCN1C(=O)[C@H](Cc1ccc(O)cc1)NC(=O)[C@H](CCSC)NC(=O)[C@H](CCCCN)NC(=O)[C@@H](NC(=O)[C@H](CC(C)C)NC(=O)[C@@H](NC(=O)[C@@H](NC(=O)CNC(=O)CNC(=O)CNC(=O)[C@H](C)NC(=O)[C@@H]1CCCN1C(=O)[C@H](CC(C)C)NC(=O)[C@@H]1CCCN1C(=O)[C@@H](N)C(C)C)[C@@H](C)O)C(C)C)[C@@H](C)O)C(C)C)C(N)=O` [GRP]?
Answer: duration of glucose-lowering action (diabetic rats; in vivo, diabetic rats): only for a short period of time; clearance of blood glucose (diabetic rats; injection into diabetic rats): markedly accelerated clearance of blood glucose; potentiation of glucose-induced insulin secretion (pancreatic islet cells): potentiate glucose-induced insulin secretion; inactivation as a result of cleavage by DPP IV in plasma (DPP IV): rapid inactivation
